Marks after values point to notes of the source that are not given here.
Assays:
[1] = system: concanavalin A-induced hepatic damage in mice; assay: Inhibitory effect on concanavalin A-induced hepatic damage (plasma transaminase activities GOT, GPT); format: in vivo; settings: male BALB/c mice; for Inhibition rate (%) p.o. GOT / Inhibition rate (%) i.p. GOT: plasma GOT 24 hours after con A; for Inhibition rate (%) p.o. GPT / Inhibition rate (%) i.p. GPT: plasma GPT 24 hours after con A
Experimental: The hepatic damage inhibitory effect of the adenosine A2 receptor agonist of the invention can be verified by a test using mice as described below. Among the various animal models proposed for the evaluation of hepatic damage inhibitory activity, the disease model used in this test resembles human hepatitis in the mechanism of onset. Using 6-weeks old male BALB/c mice in groups of 17-20, the test drug was administered intraperitoneally or orally. At 30 minutes after intraperitoneal administration of the test drug or 1 hour after oral administration, 0.6 mg of concanavalin A (con A) was administered intravenously to each animal to induce hepatic damage. At 24 hours after administration of con A, plasma transaminase activities [GOT (glutamic-oxaloacetic transaminase), GPT (glutamic-pyruvic transaminase)] were determined. The plasma transaminase activity inhibition rate in each group given a test drug relative to the control group was calculated by means of the following equation. Inhibition rate (%) = [(C-D)/C] × 100 [formula] where C represents the mean value of plasma transaminase activity in the control group and D represents the mean value of plasma transaminase activity in the group given a test drug.

[2] = system: ICR mice; settings: 1000 mg/kg orally, 7-8 weeks old; cited from earlier work
[3] = 1 mg/kg p.o. 1 hour before con A
[4] = 0.3 mg/kg i.p. 30 minutes before con A
[5] = 3 mg/kg i.p. 30 minutes before con A
[6] = 3 mg/kg p.o. 1 hour before con A
[7] = 1 mg/kg i.p. 30 minutes before con A

Compound	Inhibition rate (%) p.o. GOT [1, 3]	Inhibition rate (%) p.o. GPT [1, 3]	Inhibition rate (%) i.p. GOT [1, 4]	Inhibition rate (%) i.p. GPT [1, 4]	Inhibition rate (%) i.p. GOT [1, 5]	Inhibition rate (%) i.p. GPT [1, 5]	Inhibition rate (%) p.o. GOT [1, 6]	Inhibition rate (%) p.o. GPT [1, 6]	death [2]	Inhibition rate (%) i.p. GOT [1, 7]	Inhibition rate (%) i.p. GPT [1, 7]
Nc1ncnc2c1ncn2[C@@H]1O[C@H](C(=O)NC2CC2)[C@@H](O)[C@H]1O [Compound 4, 1-(6-amino-9H-purin-9-yl)-1-deoxy-N-cyclopropyl-β-D-ribofuranuronamide]	49** %	56** %									
CCCCCCC#Cc1nc(N)c2ncn([C@@H]3O[C@H](CO)[C@@H](O)[C@H]3O)c2n1 [Compound 5, 2-(1-octyn-1-yl)adenosine]			90** %	96** %	91** %	96** %	93** %	97** %	no death was encountered		
COc1cc(OC)cc(C(CNc2ncnc3c2ncn3[C@@H]2O[C@H](CO)[C@@H](O)[C@H]2O)c2ccccc2C)c1 (stereo partly shown) [Compound 3, N^6-[2-(3,5-dimethoxyphenyl)-2-(2-methylphenyl)ethyl]adenosine]			61** %	60** %	83** %	87** %	86** %	88** %			
CCNC(=O)[C@H]1O[C@@H](n2cnc3c(N)nc(NCCc4ccc(CCC(=O)O)cc4)nc32)[C@H](O)[C@@H]1O [Compound 1, 1-[6-amino-2-[(2-(4-(2-carboxyethyl)phenyl)-ethyl)amino]-9H-purin-9-yl]-1-deoxy-N-ethyl-β-D-ribofuranuronamide]			85** %	88** %	93** %	98** %	64* %	58* %			
Nc1nc(Nc2ccccc2)nc2c1ncn2[C@@H]1O[C@H](CO)[C@@H](O)[C@H]1O [Compound 2, 2-(phenylamino)adenosine]			61** %	65** %						81** %	91** %
